Data set [1] concerns Triticum aestivum. Description: Phytotoxicity against Triticum aestivum (wheat) at 30 g a.i./ha applied post-emergence measured after 21 days in presence of 1% Merge adjuvant. The class given is organism-based. The following applies: in vivo, other, 504 h.
Data set [2] concerns Avena fatua. Description: Post-emergence herbicidal activity against Avena fatua at 30 g a.i./ha measured after 21 days in presence of 1% Merge adjuvant. The class given is functional.
For data set [3], the system named is Alopecurus myosuroides. Nature of the data set: Post-emergence herbicidal activity against Alopecurus myosuroides at 30 g a.i./ha measured after 21 days in presence of 1% Merge adjuvant. The class given is functional.
For data set [4], the system named is Lolium perenne. Nature of the data set: Post-emergence herbicidal activity against Lolium perenne (perennial ryegrass) at 30 g a.i./ha measured after 21 days in presence of 1% Merge adjuvant. The class given is functional.
In data set [5] the test system is Setaria faberi. Nature of the data set: Post-emergence herbicidal activity against Setaria faberi (Giant Foxtail) at 30 g a.i./ha measured after 21 days in presence of 1% Merge adjuvant. The class given is functional.
The subject of data set [6] is Hordeum vulgare. Nature of the data set: Phytotoxicity against Hordeum vulgare (barley) at 30 g a.i./ha applied post-emergence measured after 21 days in presence of 1% Merge adjuvant. The class given is organism-based. The following applies: in vivo, other, 504 h.
Data set [7] concerns Hordeum vulgare. Description: Phytotoxicity against Hordeum vulgare (barley) at 500 g a.i./ha applied post-emergence measured after 15 days. The following applies: in vivo, other, 360 h. The class given is organism-based.
For data set [8], the system named is Setaria faberi. Description: Post-emergence herbicidal activity against Setaria faberi (Giant Foxtail) at 500 g a.i./ha measured after 15 days. The class given is functional.
For data set [9], the system named is Alopecurus myosuroides. Description: Post-emergence herbicidal activity against Alopecurus myosuroides at 500 g a.i./ha measured after 15 days. The class given is functional.
Data set [10] relates to Lolium perenne. Nature of the data set: Post-emergence herbicidal activity against Lolium perenne (perennial ryegrass) at 500 g a.i./ha measured after 15 days. The class given is functional.
For data set [11], the system named is Triticum aestivum. Nature of the data set: Phytotoxicity against Triticum aestivum (wheat) at 500 g a.i./ha applied post-emergence measured after 15 days. The class given is organism-based. The following applies: in vivo, other, 360 h.
Data set [12] deals with Avena fatua. Description: Post-emergence herbicidal activity against Avena fatua at 500 g a.i./ha measured after 15 days. The class given is functional.
In data set [13] the test system is Lolium perenne. Description: Post-emergence herbicidal activity against Lolium perenne (perennial ryegrass) at 2000 g a.i./ha after 21 days. The class given is functional.
In data set [14] the test system is Setaria faberi. Nature of the data set: Post-emergence herbicidal activity against Setaria faberi (Giant Foxtail) at 2000 g a.i./ha after 21 days. The class given is functional.
For data set [15], the system named is Setaria faberi. Nature of the data set: Post-emergence herbicidal activity against Setaria faberi (Giant Foxtail) at 500 g a.i./ha after 21 days. The class given is functional.
Data set [16] concerns Lolium perenne. Description: Post-emergence herbicidal activity against Lolium perenne (perennial ryegrass) at 500 g a.i./ha after 21 days. The class given is functional.
Data set [17] concerns Avena fatua. Description: Post-emergence herbicidal activity against Avena fatua at 2000 g a.i./ha after 21 days. The class given is functional.
In data set [18] the test system is Avena fatua. Nature of the data set: Post-emergence herbicidal activity against Avena fatua at 500 g a.i./ha after 21 days. The class given is functional.

On to `CCOc1c(-c2c(CC)cc(C)cc2CC)c(=O)n2n1CCOCC2`, for which the Activity with Triticum aestivum [1] amounted to 0%; in the data set on Avena fatua [2] it was 0%; with Alopecurus myosuroides [3] it was 0%; in the data set on Lolium perenne [4] it was 20%; with Setaria faberi [5], 0%; in the data set on Hordeum vulgare [6], 0%.

For the compound `CCc1cc(C)cc(CC)c1-c1c(OS(=O)(=O)N(C)C)n2n(c1=O)CCOCC2`, the Activity in the data set with Triticum aestivum [1] came out at 0%; with Avena fatua [2] it was 10%; in the data set with Alopecurus myosuroides [3], 0%; in the data set on Lolium perenne [4], 50%; in the data set on Setaria faberi [5], 20%; in the data set with Hordeum vulgare [6], 0%.

As for `Cc1cc(C)c(C2C(=O)N3CCC(C)CCN3C2=O)c(C)c1`, the Activity in the data set with Hordeum vulgare [7] is 60%; with Setaria faberi [8] it was 60%; with Alopecurus myosuroides [9], 90%; in the data set with Lolium perenne [10], 80%; in the data set on Triticum aestivum [11], 20%; with Avena fatua [12] it was 90%.

As for `Cc1cc(C)c(-c2c(OC(=O)C(C)(C)C)n3n(c2=O)CCS(=O)(=O)CC3)c(C)c1`, the Activity in the data set with Lolium perenne [13] is reported as 50%; with Setaria faberi [14] it was 50%; in the data set on Setaria faberi [15] it was 10%; in the data set on Lolium perenne [16] it was 10%; in the data set with Avena fatua [17], 80%; in the data set with Avena fatua [18] it was 20%.

For the compound `CCc1cc(C)cc(CC)c1-c1c(OCOC(=O)C(C)(C)C)n2n(c1=O)CCOCC2`, the Activity came to 10% with Triticum aestivum [1]; 100% with Avena fatua [2]; 60% with Alopecurus myosuroides [3]; 100% with Lolium perenne [4]; 90% in the data set with Setaria faberi [5]; 0% with Hordeum vulgare [6].

As for `Cc1cc(C)c(C2C(=O)N3CC(C)(C)CN3C2=O)c(C)c1`, the Activity with Hordeum vulgare [7] came out at 90%; with Setaria faberi [8], 90%; with Alopecurus myosuroides [9] it was 100%; in the data set on Lolium perenne [10] it was 90%; in the data set on Triticum aestivum [11] it was 60%; in the data set on Avena fatua [12] it was 90%.

`Cc1cc(C)c(C2C(=O)N3CCN(C)CCN3C2=O)c(C)c1`: the Activity with Lolium perenne [13] came to 60%; in the data set with Setaria faberi [14], 90%; in the data set on Setaria faberi [15] it was 40%; in the data set with Lolium perenne [16] it was 10%; in the data set with Avena fatua [17] it was 10%; with Avena fatua [18], 0%.

Turning to `Cc1cc(C)c(C2C(=O)N3CCS(=O)(=O)CCN3C2=O)c(C)c1`, the Activity with Lolium perenne [13] came out at 60%; in the data set on Setaria faberi [14], 60%; in the data set with Setaria faberi [15], 20%; in the data set with Lolium perenne [16], 20%; in the data set on Avena fatua [17], 80%; in the data set with Avena fatua [18], 60%.

Consider `Cc1cc(C)c(C2C(=O)N3CC[S+]([O-])CCN3C2=O)c(C)c1`, for which the Activity was found to be 80% with Lolium perenne [13]; 90% in the data set with Setaria faberi [14]; 60% in the data set with Setaria faberi [15]; 40% in the data set with Lolium perenne [16]; 80% in the data set on Avena fatua [17]; 40% in the data set on Avena fatua [18].

As for `Cc1cc(C)c(C2C(=O)N3CC(C)C(C)CN3C2=O)c(C)c1` (stereo unspecified), the Activity was determined as 60% in the data set on Hordeum vulgare [7]; 60% in the data set with Setaria faberi [8]; 80% in the data set on Alopecurus myosuroides [9]; 80% in the data set on Lolium perenne [10]; 20% with Triticum aestivum [11]; 80% in the data set on Avena fatua [12].

In the case of `CCc1cc(C)cc(CC)c1-c1c(OC(=O)OC(C)C)n2n(c1=O)CCOCC2`, the Activity in the data set with Triticum aestivum [1] was found to be 0%; in the data set with Avena fatua [2], 90%; in the data set with Alopecurus myosuroides [3], 80%; in the data set on Lolium perenne [4], 100%; in the data set with Setaria faberi [5] it was 100%; in the data set with Hordeum vulgare [6], 0%.

In the case of `Cc1cc(C)c(C2C(=O)N3C[C@H]4CCCC[C@@H]4CN3C2=O)c(C)c1`, the Activity in the data set with Hordeum vulgare [7] is on record as 50%; with Setaria faberi [8], 80%; in the data set with Alopecurus myosuroides [9], 60%; with Lolium perenne [10] it was 60%; in the data set on Triticum aestivum [11] it was 50%; in the data set with Avena fatua [12], 50%.

Consider `Cc1cc(C)c(C2C(=O)N3CCCC(C)N3C2=O)c(C)c1` (stereo unspecified), for which the Activity is listed as 80% with Hordeum vulgare [7]; 40% with Setaria faberi [8]; 40% with Alopecurus myosuroides [9]; 90% with Lolium perenne [10]; 20% with Triticum aestivum [11]; 90% in the data set on Avena fatua [12].

Consider `Cc1cc(C)c(C2C(=O)N3CCCCCN3C2=O)c(C)c1`, for which the Activity worked out at 40% with Hordeum vulgare [7]; 90% in the data set with Lolium perenne [13]; 90% in the data set with Setaria faberi [14]; 60% in the data set on Setaria faberi [8]; 90% with Setaria faberi [15]; 60% in the data set on Lolium perenne [16]. In addition, the Activity in the data set on Alopecurus myosuroides [9] came out at 50%; in the data set with Lolium perenne [10] it was 50%; in the data set with Avena fatua [17] it was 90%; with Triticum aestivum [11], 20%; in the data set on Avena fatua [12], 90%; in the data set on Avena fatua [18] it was 50%.

For `COC1CN2C(=O)C(c3c(C)cc(C)cc3C)C(=O)N2C1`, the Activity with Hordeum vulgare [7] is on record as 0%; in the data set on Setaria faberi [8] it was 60%; in the data set with Alopecurus myosuroides [9] it was 20%; in the data set on Lolium perenne [10], 20%; with Triticum aestivum [11] it was 0%; in the data set with Avena fatua [12] it was 20%.

As for `Cc1cc(C)c(-c2c(OC(=O)C(C)(C)C)n3n(c2=O)CCSCC3)c(C)c1`, the Activity in the data set on Lolium perenne [13] was 80%; in the data set on Setaria faberi [14], 100%; in the data set on Setaria faberi [15], 60%; with Lolium perenne [16] it was 40%; in the data set with Avena fatua [17] it was 90%; in the data set with Avena fatua [18], 50%.

Turning to `Cc1cc(C)c(C2C(=O)N3CCC(C)CN3C2=O)c(C)c1` (stereo unspecified), the Activity in the data set on Hordeum vulgare [7] is on record as 90%; in the data set on Setaria faberi [8], 50%; in the data set on Alopecurus myosuroides [9] it was 90%; in the data set with Lolium perenne [10] it was 90%; with Triticum aestivum [11], 50%; in the data set on Avena fatua [12], 90%.

`Cc1cc(C)c(C2C(=O)N(C)N(C)C2=O)c(C)c1`: the Activity was determined as 20% in the data set with Hordeum vulgare [7]; 80% in the data set with Setaria faberi [8]; 40% in the data set on Alopecurus myosuroides [9]; 50% with Lolium perenne [10]; 10% with Triticum aestivum [11]; 40% in the data set with Avena fatua [12].

As for `Cc1cc(C)c(C2C(=O)N3C[C@H]4CCCC[C@H]4CN3C2=O)c(C)c1` (stereo partly specified), the Activity is recorded as 60% in the data set on Hordeum vulgare [7]; 60% in the data set on Setaria faberi [8]; 60% in the data set with Alopecurus myosuroides [9]; 90% in the data set on Lolium perenne [10]; 50% in the data set on Triticum aestivum [11]; 80% with Avena fatua [12].

For `Cc1cc(C)c(-c2c(OC(=O)C(C)(C)C)n3n(c2=O)CCCCC3)c(C)c1`, the Activity came to 100% in the data set on Lolium perenne [13]; 90% in the data set on Setaria faberi [14]; 90% in the data set with Setaria faberi [15]; 80% in the data set with Lolium perenne [16]; 90% with Avena fatua [17]; 60% in the data set with Avena fatua [18].

As for `CCc1cc(C)cc(CC)c1-c1c(OC(=O)N(CC)CC)n2n(c1=O)CCOCC2`, the Activity in the data set on Triticum aestivum [1], in the data set on Avena fatua [2], in the data set with Alopecurus myosuroides [3], in the data set with Lolium perenne [4], in the data set with Setaria faberi [5] and in the data set with Hordeum vulgare [6] was 0% in each case.

`Cc1cc(C)c(C2C(=O)N3CC(C)CN3C2=O)c(C)c1`: the Activity in the data set on Hordeum vulgare [7] stood at 50%; with Setaria faberi [8], 50%; with Alopecurus myosuroides [9], 50%; in the data set on Lolium perenne [10] it was 60%; in the data set with Triticum aestivum [11], 40%; with Avena fatua [12], 90%.

On to `Cc1cc(C)c(C2C(=O)N3CCCN3C2=O)c(C)c1`, for which the Activity with Hordeum vulgare [7] worked out at 40%; in the data set with Setaria faberi [8], 40%; in the data set on Alopecurus myosuroides [9], 40%; with Lolium perenne [10], 80%; in the data set on Triticum aestivum [11], 0%; in the data set with Avena fatua [12], 20%.

Consider `Cc1cc(C)c(-c2c(OC(=O)C(C)(C)C)n3n(c2=O)CC[S+]([O-])CC3)c(C)c1` (stereo unspecified), for which the Activity in the data set with Lolium perenne [13] was 50%; in the data set with Setaria faberi [14] it was 80%; in the data set with Setaria faberi [15], 40%; in the data set with Lolium perenne [16] it was 20%; in the data set on Avena fatua [17], 80%; with Avena fatua [18], 20%.

On to `Cc1cc(C)c(C2C(=O)N3CCSCCN3C2=O)c(C)c1`, for which the Activity with Lolium perenne [13] worked out at 90%; with Setaria faberi [14] it was 100%; with Setaria faberi [15], 90%; in the data set on Lolium perenne [16], 50%; in the data set on Avena fatua [17] it was 90%; in the data set with Avena fatua [18], 60%.
